What was measured:
mouse EpiSCs = assay: Mouse EpiSC self-renewal culture; format: cell-based; settings: for EpiSC self-renewal / maintenance of undifferentiated state: CD1 mouse EpiSCs, GMEM/10% FBS, no FGF2/activin unless named, CHIR 3 μM, PD0325901 1 μM, XAV939 2 μM, IWR-1 2.5 μM, IWP-2 2.5 μM, Pyrvinium 100 nM
Excerpt: We therefore reasoned that if CHIR induces EpiSC differentiation through stabilization of β-catenin, de-stabilization of β-catenin might promote EpiSC self-renewal. We tested this hypothesis by administering the tankyrase inhibitor XAV939 to mouse EpiSC cultures. XAV939-mediated inhibition of tankyrase stabilizes Axin, leading to the formation of the β-catenin destruction complex, composed of GSK3, Axin and adenomatous polyposis coli (APC) (Huang et al., 2009). […] EpiSCs cultured in CHIR/XAV could be routinely passaged by single-cell dissociation and replating onto gelatin-coated dishes, and could be cryo-preserved and recovered at high efficiency by standard techniques.
final concentrations: CHIR99021 (3 μM), PD0325901 (1 μM), XAV939 (Sigma, 2 μM), IWR-1 (Sigma, 2.5 μM), IWP-2 (Stemgent, 2.5 μM), Pyrvinium (Sigma, 100 nM), recombinant human FGF2 (PeproTech, 10 ng/ml), and recombinant human activin A (PeproTech, 10 ng/ml). CHIR99021 and PD0325901 were synthesized in the Division of Signal Transduction Therapy, University of Dundee, UK.
The basal medium for mouse EpiSC culture is the conventional mouse ESC medium, which consists of GMEM (Sigma) supplemented with 10% fetal bovine serum (FBS) (Hyclone), 2 mM L-glutamine (Invitrogen), 1 mM sodium pyruvate (Invitrogen), 1% nonessential amino acids (Invitrogen), and 0.1 mM (3-mercaptoethanol. Mouse EpiSCs were derived and maintained in the basal medium supplemented with FGF2/activin, CHIR/XAV, or CHIR/IWR-1. The basal medium for rat EpiSC culture is N2B27 (Tong et al., 2011), which was prepared by mixing 500 ml of DMEM/F12 (Invitrogen) with 500 ml of Neurobasal™ medium (Invitrogen), and adding 5 ml of N2 (Invitrogen), 10 ml of B27 (Invitrogen), 5 ml of Glutamax™ (Invitrogen), and 1 ml of 0.1 M β-mercaptoethanol (Sigma). The basal medium for human ESC culture consists of Knockout™ DMEM/F12 supplemented with 20% KSR (Invitrogen), 1% nonessential amino acids, 2 mM L-glutamine, and 0.1 mM (3-mercaptoethanol. Human ESCs were cultured in the basal medium supplemented with FGF2, CHIR/XAV, or CHIR/IWR-1.
Post-implantation epiblasts were isolated from mouse or rat embryos and dissociated into small clumps as previously described (Chenoweth and Tesar, 2010). Epiblast fragments were placed into 4-well plates pre-coated with 0.1% gelatin (for mouse epiblasts) or pre-seeded with γ-irradiated mouse embryonic fibroblasts (MEFs) (for rat epiblasts) and cultured in either the FGF2/activin or the CHIR/XAV conditions. Emerging EpiSCs were trypsinized and expanded every 2-3 days at a subculture ratio of 1:4. Animal experiments were performed according to the investigator's protocols approved by the University of Southern California Institutional Animal Care and Use Committee.

[1] = system: β-catenin/TCF-responsive TOPFlash reporter; assay: TOPFlash reporter assay in H9 human ESCs; format: cell-based; settings: 24 h
Description: (A) TOPFlash™ assay in H9 human ESCs subjected to the indicated treatments for 24 h. Data represent mean±s.d. of three biological replicates. (B) Representative phase contrast and alkaline phosphatase (AP) staining images of H9 human ESCs cultured in the indicated conditions for 3 passages. (C) Phase contrast images of H9 human ESCs cultured in CHIR/XAV or CHIR/IWR-1 for 11 passages. (D) Colony forming efficiency assay of H9 human ESCs cultured in FGF2 or CHIR/IWR-1 conditions. Data represent mean±s.d. of three biological replicates. Right panel: a representative image showing AP staining of colonies formed from H9 human ESCs cultured in either FGF2 or CHIR/IWR-1 condition. (E) Human ESCs cultured in CHIR/IWR-1 for 11 passages were immunostained with the indicated antibodies. (F) Embryoid bodies (EBs) were generated from H9 human ESCs cultured in CHIR/IWR-1 for 11 passages. The outgrowths of EBs were immunostained with the indicated antibodies. (G) H&E staining of teratomas generated from H9 ESCs cultured in CHIR/IWR-1 for 20 passages. (H) Western blot analysis of Axin1 and Axin2 expression in HES3 human ESCs treated with the indicated cytokines/inhibitors for 24 h. (I) Immunofluorescence images of H9 human ESCs (passage 5 in CHIR) overexpressing Flag-tagged Axin2. (J) Representative phase contrast and immunofluorescence images of HES2 human ESCs overexpressing ΔNβ-catenin-ERT2 at passage 5 in basal medium only. These cells were cultured in basal medium only for more than 10 passages and remained morphologically undifferentiated. (K) Phase contrast images of HES2 human ESCs overexpressing ΔNβ-catenin (left panel, passage 2 in basal medium/FGF2) or ΔNβ-catenin/A295W/I296W mutant (right panel, passage 5 in basal medium only). Scale bars, 50 μm (B, C, E-G, and I-K). (L) Model of mouse EpiSC and human ESC self-renewal mediated by β-catenin. In the absence of Wnt or GSK3 inhibitor, a β-catenin destruction complex, containing Axin1, GSK3, and APC is formed, leading to the degradation of β-catenin and differentiation (left). In the presence of Wnt or GSK3 inhibitor, β-catenin is stabilized and can initiate cellular responses related to both self-renewal and differentiation. Stabilized β-catenin induces differentiation when it translocates into the nucleus and binds TCFs to activate downstream targets (middle). Addition of XAV or IWR-1 stabilizes Axin2. […]
For quantifying relative Oct3/4 enhancer activities, pGL3-Oct4 DE and pGL3-Oct4 PE plasmids (gifts from Hans Schöler's lab) were co-transfected with the Renilla vector, using the Amaxa™ Transfection Kit (Lonza). […] For quantifying relative β-catenin/Tcf transcriptional activity, pGL2-SuperTOP™ plasmid (gift from Randall Moon) was co-transfected with the Renilla vector and assayed accordingly.

Row | Compound | self-renewal of β-catenin−/− EpiSCs overexpressing Axin2 (mouse EpiSCs; 3 μM CHIR after removal of FGF2/activin) | self-renewal of Axin1-overexpressing EpiSCs (mouse EpiSCs; Axin1-EpiSCs, CHIR after removal of FGF2/activin) | self-renewal of Axin2-overexpressing EpiSCs (mouse EpiSCs; Axin2-EpiSCs, CHIR alone after removal of FGF2/activin) | EpiSC self-renewal / maintenance of undifferentiated state (mouse EpiSCs) | TOPFlash reporter activity [1] | time EpiSCs remained undifferentiated (mouse EpiSCs; XAV939 alone, before passaging) | effect on TOPFlash activity induced by CHIR ([1]; added to CHIR)
1 | Cc1c[nH]c(-c2cnc(NCCNc3ccc(C#N)cn3)nc2-c2ccc(Cl)cc2Cl)n1 [CHIR99021, 6-((2-((4-(2,4-Dichlorophenyl)-5-(4-methyl-1H-imidazol-2-yl)pyrimidin-2-yl)amino)ethyl)amino)nicotinonitrile] | differentiated after the removal of FGF2/activin, even in the presence of CHIR | rapidly differentiated | sufficient to support robust and long-term expansion of undifferentiated Axin2-EpiSCs | rapidly differentiated or died | strongly induced | – | –
2 | Oc1nc(-c2ccc(C(F)(F)F)cc2)nc2c1CSCC2 [XAV939, 3,5,7,8-Tetrahydro-2-[4-(trifluoromethyl)phenyl]-4H-thiopyrano[4,3-d]pyrimidin-4-one] | – | – | – | differentiated after passaging | – | approximately 1 week | abolished this TOPFlash™ activity
